By AUC(0-t) is commonly meant exposure summed from dosing to a finite time, without extrapolation to infinity. As usually defined, the Papp A→B is the apparent permeability from the apical to the basolateral side of a cell layer. Higher therefore signals fast passage. Broadly, the Papp B→A is the apparent permeability from the basolateral to the apical side of a cell layer. For orientation: half-life means how long it takes for the measured level to halve. A higher half-life goes with slow decline.

Data set [1] relates to CUMS model mice. As to the kind of experiment: Forced swimming test in CUMS model mice, intravenous administration. As to conditions: single i.v. dose 100 mg/kg, test 2 hours later (FIG. 3). In kind it is in vivo, C57/B6 mice. An excerpt: (§1) 6-8-week-old C57/B6 mice (purchased from: Jinan Pengyue Laboratory Animal Breeding Co., Ltd.) were used to establish a 28-day chronic unpredictable mild stress (CUMS) animal model, and an experimental procedure referred to document description^[1,2]. After one week of acclimatization, seven experiments, including food and water deprivation, foot shock, wet bedding, cage tilting, restraint stress, shaker stress, and olfactory stimulation, were randomly applied to the animals within one week to achieve unpredictability, and the stimulation was continued for 4 consecutive weeks. The successful establishment of the model was verified by an open field test (OFT)^[3], and then pharmacodynamic evaluation was carried out. The animals were divided into a blank control group (Control), a model group (Model), a vehicle control group (Vehicle), a fluoxetine control group and a compound group in the experiment. The test compound was intravenously (i.v.) administered once at a dose of 100 mg/kg, a tail suspension test (TST) and a forced swimming test (FST)^[4,5] were carried out 2 hours later to evaluate the depression of the mice, and prolonged immobility time in the TST and the FST indicated behavioral despair of the mice. After summary statistics of data, SPSS data statistics software was used for analysis, and Graph Pad software was used for graph generation based on SPSS analysis results.

Data set [2] can be described thus: Mouse pharmacokinetic detection. In kind it is in vivo. Conditions: CD1 mice; for AUC(0-t): oral gavage 10 mg/kg; for bioavailability: oral gavage 10 mg/kg vs intravenous 10 mg/kg. The method, then: The detection was carried out in 6-8-week-old CD1 mice (purchased from: Speifu (Beijing) Biotechnology Co., Ltd.). […] The concentration of the compound in a plasma sample was analyzed by LC-MS/MS. Pharmacokinetic calculation was carried out by using WinNonlin (Phoenix™, Version 8.3) or other similar software. The following pharmacokinetic parameters were calculated based on plasma concentration and time data: Oral administration: AUClast, bioavailability (F). Statistical calculation was carried out on the above parameter data. Table 3 Pharmacokinetic data of some compounds administered orally in mice

For data set [3], the system named is CUMS model mice. The experiment in a line: Tail suspension test in CUMS model mice, intravenous administration. The data set is classed as in vivo, C57/B6 mice. Conditions: single i.v. dose 100 mg/kg, test 2 hours later (FIG. 4).
Text: as §1

Data set [4] is described as follows: Rat pharmacokinetic detection. The data set is classed as in vivo. Conditions: plasma, male SD rats. The protocol:
The detection was carried out in 6-8-week-old male SD rats (purchased from:SPF (Beijing) Biotechnology Co., Ltd.). A test compound was dissolved in a solution containing 10% DMSO, 15% Solutol HS and 75% (aqueous solution of 10% hydroxypropyl-β-cyclodextrin), and administered via intravenous injection (10 mg/kg) or oral gavage (15 mg/kg). A concentration of the compound in a plasma sample was analyzed by LC-MS/MS. Pharmacokinetic calculation was carried out by using WinNonlin (Phoenix™, Version 8.3). The following pharmacokinetic parameters were calculated based on plasma concentration and time data: Oral administration: AUClast, bioavailability (F). Statistical calculation was carried out on the above parameter data. Table 4 Pharmacokinetic data of some compounds administered orally in rats

Data set [5] is described as follows: Permeability detection in MDR1-MDCK II cell monolayer. The data set is classed as in vitro ADME. Conditions: dog, pH 7.4, MDR1-MDCK II cells, 2 µM, 2.5 hours; for Papp A→B at 2.5 h, 2 µM: apical to basolateral; for Papp B→A at 2.5 h, 2 µM: basolateral to apical. The protocol: (§2) MDR1-MDCK II cells (imported from the Netherlands Cancer Institute) were seeded in a 96-well cell plate at a density of 3.33×10^5 cells/mL, and cultured in a carbon dioxide incubator for 4-7 days to form a cell monolayer. A Hank's balanced salt solution (HBSS, pH 7.40 ± 0.05) containing 10.0 mM 4-(2-hydroxyethyl)-1-piperazineethanesulfonic acid (HEPES) was used as a transport buffer. A DMSO stock solution of compound was diluted to 2 µM (DMSO < 1.0%) with the transport buffer, and added to the basolateral (B) side and apical (A) side respectively (N=2). The bidirectional (A-B and B-A) incubation concentration of Digoxin, a P-gp substrate, was 10 µM, and the unidirectional (A-B) incubateion concentrations of Nadolol, a low-permeability control, and Metoprolol, a high-permeability control, were 2 µM. The cell plate was incubated in a 5% CO2 cell incubator at 37°C and saturated humidity for 2.5 hours, then final samples from a receiver side and a donor side were collected, added with the transport buffer and a precipitant at an appropriate ratio, and analyzed by LC-MS/MS, and an apparent permeability coefficient, an efflux ratio and a solution recovery were calculated.
(§3) After the transport experiment was completed, an integrity of the MDR1-MDCK II cell layer was detected by a lucifer yellow detection experiment. Residual solution in apical and basolateral wells was removed, and 75 µL of transport buffer containing 100 µM lucifer yellow was added to the apical wells and 250 µL of transport buffer was added to the basolateral wells respectively. The cell plate was incubated in a 5% CO2 cell incubator at 37 °C and saturated humidity for 30 minutes, then 20 µL of sample was taken from the apical side and mixed with 60 µL of transport buffer and 80 µL of sample was taken from the basolateral side. A relative fluorescence intensity was detected by a microplate reader at excitation/emission wavelengths of 425/528 nm, and the permeability of Lucifer Yellow was calculated.
(§4) The apparent permeability coefficient (Papp), efflux ratio (ER) and %solution recovery were respectively calculated by following formulas: Papp = (VR)/(Area × Time) × ([drug]receiver)/([drug]initial,donor) = (VR)/(Area × Time) × (CR)/(C0) [formula] Efflux Ratio = (Papp (B−A))/(Papp (A−B)) [formula] %Solution Recovery = (CR × VR + CD × VD)/(C0 × VD) × 100 [formula]
(§5) VR was the volume of solution in the receiver side (0.075 mL for the apical side and 0.25 mL for the basolateral side respectively), VD was the volume of solution in the donor side (0.075 mL for the apical side and 0.25 mL for the basolateral side respectively), CR was the peak area ratio of compound in the receiver side, CD was the peak area ratio of compound in the donor side, C0 was the initial peak area ratio of compound in the donor side, Area was the surface area (0.143 cm^2) of the cell monolayer, and Time was incubation time of 9000 seconds (150 minutes). Papp(B-A) and Papp(A-B) respectively referred to the apparent permeability coefficient from the basolateral side to the apical side and the apparent permeability coefficient from the apical side to the basolateral side.
(§6) The permeability of Lucifer Yellow(%Lucifer Yellow) was calculated by the following formula: %Lucifer Yellow = (VBasolateral × RFUBasolateral)/(VApical × RFUApical + VBasolateral × RFUBasolateral) × 100 [formula]
(§7) RFUApical and RFUBasolareral respectively referred to relative fluorescence intensities of lucifer yellow in the apical side and the basolateral side. VApical and VBasolateral respectively referred to loading volumes (0.075 mL and 0.25 mL respectively) in the apical side and the basolateral side. Table 2 Permeability data of some compounds

A further data set deals with MDR1-MDCK II cells. The description is as above. In kind it is in vitro ADME. Conditions: permeability rank. The protocol: as §2, §3, §4, §5, §6, §7
The subject of data set [6] is CUMS model mice. The experiment in a line: Tail suspension test in CUMS model mice, oral administration. The data set is classed as in vivo, C57/B6 mice. Conditions: single oral dose 25 mg/kg, test 2 hours later (FIG. 1, FIG. 2).
Text: as §1, with “fluoxetine control group, ZZL-7 experimental group and” for “fluoxetine control group and”, “compound was orally administered once” for “compound was intravenously (i.v.) administered once”, “dose of 25 mg/kg, a” for “dose of 100 mg/kg, a”, “suspension test (TST)^[4,5] was carried out” for “suspension test (TST) and a forced swimming test (FST)^[4,5] were carried out”, “the TST indicated behavioral” for “the TST and the FST indicated behavioral”

The nature of data set [7]: Plasma stability determination. The data set is classed as in vitro ADME. Conditions: mouse. The method, then:
Mouse plasma (purchased from IPHASE, Batch No. 23B007) was thawed in a 37°C water bath, centrifuged to remove an upper clot, and the pH value was recorded as 7-8. An appropriate volume of stock solution of test compound in acetonitrile (at a concentration of 10 mM) was diluted with acetonitrile to 1 mM, so as to serve as a test drug solution. An appropriate volume of test drug solution was added to a corresponding volume of plasma and mixed uniformly, such that the concentration of the test compound in the incubation system was 5 µM, and the content of the organic solvent acetonitrile was 0.5%. 50 µL of mixed plasma was transferred into a 96-well plate (N=2), incubated at 37°C in a water bath for a designated time, and then added with 300 µL of internal standard-containing methanol solution to terminate the reaction. The reaction mixture was vortexed and centrifuged, and the supernatant was subjected to LC-MS/MS analysis. Propantheline and ZZL-7 were used as positive controls, and processed and tested under the same conditions as the test compound. A curve was plotted with the remaining percentage of the compound against incubation time to obtain a k value, and the half-life of each compound was calculated.

Where a SMILES comes first, the peptide text is derived from it. [ ]: non-standard residue; d: D form. ξ: configuration not given here. ξAze = O=C(O)C1CCN1

With `COC(=O)[C@@H](NC(=O)C1CCN1C(C)=O)C(C)C` (stereo partly drawn) [A-2-1] (Ac-[ξAze]-Val-OMe), in the data set with CUMS model mice [1], the “immobility time in the forced swimming test” value is reported as “rapidly reverse the prolonged immobility time”. Also, in data set [2] (plasma), the AUC(0-t) is 3130 ng·h/mL and the bioavailability stood at 156%. For the same molecule, the “immobility time in the tail suspension test” value in the data set with CUMS model mice [3] is “rapidly reverse the prolonged immobility time”.

Regarding `COC(=O)[C@@H](NC(=O)c1cnc(C)[nH]1)C(C)C` [A-1-1], in the data set on CUMS model mice [1], the “immobility time in the forced swimming test” value was “rapidly reverse the prolonged immobility time”. Moreover, in data set [2] (plasma), the area under the curve AUC(0-t) was 629 ng·h/mL and the bioavailability came out at 35.3%. The “immobility time in the tail suspension test” value with CUMS model mice [3] is “rapidly reverse the prolonged immobility time”.

Consider `[2H]C([2H])([2H])C(=O)N1CC[C@@H]1C(=O)N[C@H](c1ncco1)C(C)C` [B-2-3], for which the figures for the area under the curve AUC(0-t) in data set [4] (oral gavage 15 mg/kg) and in data set [2] (plasma) were 24300 ng·h/mL and 10900 ng·h/mL, respectively. The bioavailability was determined as 66% in data set [4] (oral gavage 15 mg/kg vs intravenous 10 mg/kg) and 159% in data set [2] (plasma). For the same molecule, the Papp A→B at 2.5 h, 2 µM in data set [5] stood at 2.42 ×10⁻⁶ cm/s. This molecule also gave a Papp B→A at 2.5 h, 2 µM in data set [5] of 3.22 ×10⁻⁶ cm/s. The “Rank Papp” value in the data set with MDR1-MDCK II cells is given as “Moderate”. The “immobility time in the tail suspension test” value with CUMS model mice [6] is reported as “rapidly reverse the prolonged immobility time”.

Take `COC(=O)[C@@H](NC(=O)c1ccc[nH]1)C(C)C` [A-1-7]: the “immobility time in the forced swimming test” value in the data set with CUMS model mice [1] is “rapidly reverse the prolonged immobility time”. In data set [2] (in vivo), the area under the curve AUC(0-t) worked out at 154 ng·h/mL and the bioavailability turned out to be 27.3%. Also, in the data set on CUMS model mice [3], the “immobility time in the tail suspension test” value is “rapidly reverse the prolonged immobility time”.

`CC(=O)N1CC[C@@H]1C(=O)N[C@H](c1ncco1)C(C)C` [B-2-41] came in with a half-life at 5 µM in data set [7] greater than 4.82 h. In data set [2] (plasma), the AUC(0-t) was determined as 11600 ng·h/mL and the bioavailability is 90%. In data set [5], this molecule came in with a Papp A→B at 2.5 h, 2 µM of 4.07 ×10⁻⁶ cm/s and a Papp B→A at 2.5 h, 2 µM of 5.61 ×10⁻⁶ cm/s. For the same molecule, the “Rank Papp” value in the data set on MDR1-MDCK II cells is “Moderate”. Moreover, the “immobility time in the tail suspension test” value with CUMS model mice [6] is given as “rapidly reverse the prolonged immobility time”.

These data come from EP4818189A1, “NITROGEN-CONTAINING HETEROCYCLIC COMPOUND, AND PREPARATION METHOD AND USE THEREFOR” (Chengdu Di'ao Pharmaceutical Group Co., Ltd., priority 2023, dated 2025).
